Test results from US12729192B2, “CDK9 inhibitor and use thereof” (PHARMABLOCK SCIENCES (NANJING), INC., priority 2020, dated 2026).

Legend:
CDK2 = biological target: T1, CDK2 (Homo sapiens, UniProt P24941); experiment: CDK2 kinase activity inhibition (ADP-Glo); type: biochemical; settings: 10 μM ATP, 2 h at room temperature
T1 construct: purchased Carna Biosciences, Inc
Description: (§1) CDK9 kinase was manufactured by the company or commercially available. CDK1, CDK2 and CDK7 were purchased from Carna Biosciences, Inc. ADP-Glo™ kit was purchased from Promega Corporation. Dithiothreitol (DTT), Tween-20, dimethylsulfoxide (DMSO), bovine serum albumin (BSA) and Tris base were obtained from Sigma at the available highest level of purity.
(§2) General procedures for CDK inhibition determination: The determination was performed in a buffer consisting of 50 μM DTT, 0.1% BSA, 40 mM Tris-HCl pH=7.5 and 20 mM MgCl2. The compound dissolved in DMSO and CDK enzymes were diluted with the buffer. 1 μL of the compound solution in 5% DMSO and 2 μL of the CDK enzyme solution were added to a white low-volume 384-well microtiter plate and incubated for 20 min at room temperature. Ultra pure ATP and the substrate polypeptide (purchased from GenScript Biotech Corporation) were diluted together into the buffer and added to a mixed solution of the compound and the enzyme, 2 μL per well. They were incubated for 2 h at room temperature.
(§3) After the reaction was completed, 5 μL of ADP-Glo™ reagent was added to each well and incubated for 40 min at room temperature, and then 10 μL of test reagent was added to each well and incubated for 30 mi at room temperature. Chemical luminescence values were measured by using a Tecan (Männedorf, Switzerland) multifunctional plate reader Spark for plate reading. The IC50 value of the inhibitor was obtained by fitting the chemical luminescence intensity ratio in the S-shaped dosage reaction curve using Prism 7 (La Jolla, 15 CA) relative to the concentration of the inhibitor.

CDK7 = biological target: T2, CDK7 (Homo sapiens, UniProt P50613); experiment: CDK7 kinase activity inhibition (ADP-Glo); type: biochemical; settings: 10 μM ATP, 2 h at room temperature
T2 construct: purchased Carna Biosciences, Inc
T2 sequence (P50613 whole entry): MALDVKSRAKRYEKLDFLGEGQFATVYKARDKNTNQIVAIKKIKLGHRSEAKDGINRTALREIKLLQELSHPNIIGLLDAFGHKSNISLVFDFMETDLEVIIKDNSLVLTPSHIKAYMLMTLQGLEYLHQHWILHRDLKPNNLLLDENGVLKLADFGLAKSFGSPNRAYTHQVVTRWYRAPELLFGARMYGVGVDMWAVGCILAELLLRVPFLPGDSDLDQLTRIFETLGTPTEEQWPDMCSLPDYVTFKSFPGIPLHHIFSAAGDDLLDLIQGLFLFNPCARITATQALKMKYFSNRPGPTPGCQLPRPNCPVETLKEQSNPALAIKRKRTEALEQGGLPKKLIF
T2 sequence (P51946 whole entry partner): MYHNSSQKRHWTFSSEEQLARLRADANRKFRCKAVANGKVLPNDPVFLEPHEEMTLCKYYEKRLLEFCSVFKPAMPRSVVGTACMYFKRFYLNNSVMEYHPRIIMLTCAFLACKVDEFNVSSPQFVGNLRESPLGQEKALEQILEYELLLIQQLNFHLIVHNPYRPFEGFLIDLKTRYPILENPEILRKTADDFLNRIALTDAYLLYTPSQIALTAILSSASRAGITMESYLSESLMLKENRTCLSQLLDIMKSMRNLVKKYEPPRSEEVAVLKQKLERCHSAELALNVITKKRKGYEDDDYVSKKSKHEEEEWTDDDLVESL
T2 sequence (P51948 whole entry partner): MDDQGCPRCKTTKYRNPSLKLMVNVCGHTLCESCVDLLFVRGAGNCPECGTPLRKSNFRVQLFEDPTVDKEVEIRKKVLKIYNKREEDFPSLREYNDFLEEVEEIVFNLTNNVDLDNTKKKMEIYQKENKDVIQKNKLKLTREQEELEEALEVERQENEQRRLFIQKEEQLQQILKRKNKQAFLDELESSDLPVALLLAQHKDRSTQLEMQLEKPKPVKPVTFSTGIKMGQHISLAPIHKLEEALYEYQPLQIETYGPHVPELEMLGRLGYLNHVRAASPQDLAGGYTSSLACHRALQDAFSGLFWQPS
Description: as §1, §2, §3

CDK9 = CDK9 (Homo sapiens, UniProt P50750); experiment: CDK9 kinase activity inhibition (ADP-Glo); type: biochemical; settings: 10 μM ATP, 2 h at room temperature
Chain of CDK9 (P50750 whole entry): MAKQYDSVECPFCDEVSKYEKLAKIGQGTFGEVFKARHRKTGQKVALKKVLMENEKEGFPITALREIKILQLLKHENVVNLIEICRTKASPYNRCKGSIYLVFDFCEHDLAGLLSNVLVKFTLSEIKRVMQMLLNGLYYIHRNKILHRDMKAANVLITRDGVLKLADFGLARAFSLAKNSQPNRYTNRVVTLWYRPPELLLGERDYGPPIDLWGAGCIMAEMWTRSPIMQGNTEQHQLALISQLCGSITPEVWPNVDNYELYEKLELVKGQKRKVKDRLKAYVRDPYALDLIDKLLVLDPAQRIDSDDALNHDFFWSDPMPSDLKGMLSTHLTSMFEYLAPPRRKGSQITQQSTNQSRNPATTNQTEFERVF
Chain of CDK9 (O60563 whole entry partner): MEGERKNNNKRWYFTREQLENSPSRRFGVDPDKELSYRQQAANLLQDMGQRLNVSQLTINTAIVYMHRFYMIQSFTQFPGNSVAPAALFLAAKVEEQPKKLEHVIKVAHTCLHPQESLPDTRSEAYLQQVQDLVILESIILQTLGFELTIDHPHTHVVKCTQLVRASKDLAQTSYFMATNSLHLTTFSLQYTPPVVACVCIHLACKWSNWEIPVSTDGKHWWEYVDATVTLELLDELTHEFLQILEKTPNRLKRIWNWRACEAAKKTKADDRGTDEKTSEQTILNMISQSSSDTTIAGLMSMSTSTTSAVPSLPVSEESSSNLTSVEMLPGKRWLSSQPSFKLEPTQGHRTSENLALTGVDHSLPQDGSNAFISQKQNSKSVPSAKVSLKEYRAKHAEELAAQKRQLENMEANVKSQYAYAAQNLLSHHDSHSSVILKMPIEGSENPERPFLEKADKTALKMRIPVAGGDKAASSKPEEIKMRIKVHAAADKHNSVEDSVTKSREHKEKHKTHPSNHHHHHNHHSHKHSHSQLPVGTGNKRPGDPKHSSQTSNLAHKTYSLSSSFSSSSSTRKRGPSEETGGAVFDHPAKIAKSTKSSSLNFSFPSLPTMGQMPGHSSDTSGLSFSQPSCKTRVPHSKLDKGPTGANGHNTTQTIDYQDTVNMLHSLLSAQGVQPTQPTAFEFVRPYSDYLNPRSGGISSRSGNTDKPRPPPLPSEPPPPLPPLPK
Description: as §1, §2, §3

CDK1 = biological target: T3, CDK1 (Homo sapiens, UniProt P06493); experiment: CDK1 kinase activity inhibition (ADP-Glo); type: biochemical; settings: 50 μM ATP, 2 h at room temperature
T3 construct: purchased Carna Biosciences, Inc
T3 sequence (P06493 whole entry): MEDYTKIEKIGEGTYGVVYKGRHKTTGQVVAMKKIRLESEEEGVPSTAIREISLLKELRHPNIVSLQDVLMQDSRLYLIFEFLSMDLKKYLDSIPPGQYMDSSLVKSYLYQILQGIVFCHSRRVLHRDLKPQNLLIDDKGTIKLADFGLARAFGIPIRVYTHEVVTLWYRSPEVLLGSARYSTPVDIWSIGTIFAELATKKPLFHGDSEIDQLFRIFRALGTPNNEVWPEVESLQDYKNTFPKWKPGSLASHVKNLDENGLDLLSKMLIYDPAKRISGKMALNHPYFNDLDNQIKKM
T3 sequence (P14635 whole entry partner): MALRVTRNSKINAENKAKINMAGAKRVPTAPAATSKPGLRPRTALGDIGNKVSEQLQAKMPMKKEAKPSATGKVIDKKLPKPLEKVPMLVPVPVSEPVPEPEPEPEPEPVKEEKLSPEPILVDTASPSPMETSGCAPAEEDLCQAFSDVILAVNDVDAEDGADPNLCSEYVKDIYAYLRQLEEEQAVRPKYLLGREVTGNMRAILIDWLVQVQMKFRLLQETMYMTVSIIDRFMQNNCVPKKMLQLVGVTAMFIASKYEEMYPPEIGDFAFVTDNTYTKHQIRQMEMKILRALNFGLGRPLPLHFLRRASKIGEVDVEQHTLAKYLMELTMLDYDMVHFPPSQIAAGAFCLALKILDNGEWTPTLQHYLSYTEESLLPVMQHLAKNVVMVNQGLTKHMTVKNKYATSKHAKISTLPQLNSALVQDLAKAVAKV
Description: as §1, §2, §3

MOLM-13 cells = experiment: Tumor cell proliferation inhibition experiment (CellTiter-Glo); type: cell-based; settings: Homo sapiens; acute myeloid leukemia cell line MOLM-13; 16 h incubation; CellTiter-Glo; read-out: MOLM-13 (nM) IC50, cell proliferation inhibition
Text: An acute myeloid leukemia (AML) cell line (MOLM-13) was purchased from NANJING COBIOER BIOSCIENCES CO., LTD. An RPMI1640 medium and a penicillin-streptomycin double-antibody were purchased from ThermoFisher (Waltham, MA, USA). Certified fetal bovine serum (FBS) was purchased from Biological Industries (Israel). A Corning 384-well cell culture plate was purchased from CORNING (USA). Cell-Titer Glo® was purchased from Promega Corporation (Madison, WI, USA).
To evaluate the ability of the synthetic compound to inhibit the proliferation of MOLM-13 cells, MOLM-13 cells at an exponential growth stage were inoculated at a density of 500,000 cell/mL in the RPMI1640 medium containing 20% bovine serum and 1% penicillin-streptomycin double-antibody, and the 384-well plate contained 20 μL per well and placed overnight in an 37° C., 5% CO2 incubator. Compound powder was dissolved in DMSO to prepare a storage mother liquor with a concentration of 2 mM, and 12 dilutions with three-fold gradient concentrations were further prepared. 1 μL of gradient-diluted DMSO solution was added to 99 μL of cell culture medium (the final maximum concentration of the compound in the assay was 10 uM and the final concentration of DMSO was 0.5%). 20 μL of compound solution in the medium was added at gradients to each cell-coated test well of the 384-well plate. After the compound solution was added, the 384-well plate was incubated for 16 h in a 37° C., 5% CO2 incubator. Cell viability was determined by quantifying ATPs present in test wells using the CellTiter-Glo kit from Promega (Madison, WI, USA). After 20 minutes of incubation, readings were obtained under a chemical luminescence procedure using Tecan's Spark multifunctional plate reader. The concentration (IC50 value) of the compound at which the cell survival rate was inhibited by 50% was determined using an S-shaped dosage response model (variable slope, four parameters) in Prism 7 (LaJolla, CA).

SMILES | IC50 (CDK2) | IC50 (CDK7) | IC50 (CDK9) | IC50 (CDK1) | IC50 (MOLM-13 cells)
CC(=O)NC[C@H]1CCC(F)(F)CN1C(=O)c1nc(Nc2cc(C)ccn2)ccc1C [Compound 8, (R)—N-((5,5-difluoro-1-(3-methyl-6-((4-methylpyridin-2-yl)amino)pyridine-2-carbonyl)piperidin-2-yl)methyl)acetamide] | 2590 nM | 8380 nM | 8.9 nM | 8730 nM | 
COc1ccnc(Nc2ccc(C)c(C(=O)N3CC(F)(F)CC[C@@H]3CNC(C)=O)n2)c1 [Compound 9, (R)—N-((5,5-difluoro-1-(6-((4-methoxypyridin-2-yl)amino)-3-methylpyridine-2-carbonyl)piperidin-2-yl)methyl)acetamide] | 8450 nM | > 10000 nM | 7.8 nM | > 10000 nM | 
COc1cc(Nc2ccc(C)c(C(=O)N3CC(F)(F)CC[C@@H]3CNC(C)=O)n2)ncc1Cl [Compound 10, (R)—N-((1-(6-((5-chloro-4-methoxypyridin-2-yl)amino)-3-methylpyridine-2-carbonyl)-5,5-difluoropiperidin-2-yl)methyl)acetamide] | > 10000 nM | 9860 nM | 361 nM | > 10000 nM | 
CC(=O)NC[C@H]1CCC(F)(F)CN1C(=O)c1nc(Nc2cc(C3CC(F)(F)C3)[nH]n2)ccc1C [Compound 15, (R)—N-((1-(6-((5-(3,3-difluorocyclobutyl)-1H-pyrazol-3-yl)amino)-3-methylpyridine-2-carbonyl)-5,5-difluoropiperidin-2-yl)methyl)acetamide] | 12 nM | > 10000 nM | 4.3 nM | 503 nM | 
CC(=O)NC[C@H]1CCC(F)(F)CN1C(=O)c1nc(Nc2cc(C(C)(C)C)ccn2)ccc1C [Compound 17, (R)—N-((1-(6-((4-(t-butyl)pyridin-2-yl)amino)-3-methylpyridine-2-carbonyl)-5,5-difluoropiperidin-2-yl)methyl)acetamide] | 2870 nM |  | 19.2 nM | > 10000 nM | 
CC(=O)NC[C@H]1CCC(F)(F)CN1C(=O)c1nc(Nc2ccccn2)ccc1C [Compound 22, (R)—N-((5,5-difluoro-1-(3-methyl-6-(pyridin-2-ylamino)pyridine-2-carbonyl)piperidin-2-yl)methyl)acetamide] | > 10000 nM |  | 35 nM | > 10000 nM | 
CC(=O)NC[C@H]1CCC(F)(F)CN1C(=O)c1nc(Nc2cc(CF)ccn2)ccc1C [Compound 28, (R)—N-((5,5-difluoro-1-(6-((4-(fluoromethyl)pyridin-2-yl)amino)-3-methylpyridine-2-carbonyl)piperidin-2-yl)methyl)acetamide] | 1260 nM |  | 9.4 nM |  | 133 nM
Cc1ccc(Nc2cc(C#N)ccn2)nc1C(=O)N1CC(F)(F)CC[C@@H]1CNC(=O)OC(C)(C)C [Compound 31, (R)-((1-(6-((4-cyanopyridin-2-yl)amino)-3-methylpyridine-2-carbonyl)-5,5-difluoropiperidin-2-yl)methyl)t-butyl carbamate] | 180 nM | 7030 nM | 3.7 nM | 1470 nM | 
Cc1ccc(Nc2cc(OC(F)(F)F)ccn2)nc1C(=O)N1CC(F)(F)CC[C@@H]1CNS(C)(=O)=O [Compound 32, (R)—N-((5,5-difluoro-1-(3-methyl-6-((4-(trifluoromethoxy)pyridin-2-yl)amino)pyridine-2-carbonyl)piperidin-2-yl)methyl)methanesulfonamide] | 305 nM | 780 nM | 11.6 nM | 1390 nM | 
Cc1ccc(Nc2cc(OC(F)(F)F)ccn2)nc1C(=O)N1CC(F)(F)CC[C@@H]1CNC(=O)OC(C)(C)C [Compound 33, (R)-((5,5-difluoro-1-(3-methyl-6-((4-(trifluoromethoxy)pyridin-2-yl)amino)pyridine-2-carbonyl)piperidin-2-yl)methyl)t-butyl carbamate] | 1420 nM | > 10000 nM | 38 nM |  | 
CCOc1ccnc(Nc2ccc(C)c(C(=O)N3CC(F)(F)CC[C@@H]3CNC(C)=O)n2)c1 [Compound 35, (R)—N-((1-(6-((4-ethoxypyridin-2-yl)amino)-3-methylpyridine-2-carbonyl)-5,5-difluoropiperidin-2-yl)methyl)acetamide] | 6840 nM | > 10000 nM | 5 nM | > 10000 nM | 
CCOc1ccnc(Nc2ccc(C)c(C(=O)N3CC(F)(F)CC[C@@H]3CNC(=O)OC(C)(C)C)n2)c1 [Compound 36, (R)-((1-(6-((4-ethoxypyridin-2-yl)amino)-3-methylpyridine-2-carbonyl)-5,5-difluoropiperidin-2-yl)methyl)t-butyl carbamate] | > 10000 nM | > 10000 nM | 231 nM |  | 
Cc1ccc(Nc2cc(OC(F)(F)F)ccn2)nc1C(=O)N1CCCC[C@@H]1CNC(=O)OC(C)(C)C [Compound 41, (R)-((1-(3-methyl-6-((4-(trifluoromethoxy)pyridin-2-yl)amino)pyridine-2-carbonyl)piperidin-2-yl)methyl)t-butyl carbamate] | 9260 nM | > 10000 nM | 245 nM |  | 
Cc1ccc(Nc2cc(OC(F)(F)F)ccn2)nc1C(=O)N1CCCN2CCCC2C1 (stereo not shown) [Compound 46, (Hexahydro-1H-pyrrolo[1,2-a][1,4]diazepin-2-2(3H)-yl)(3-methyl-6-((4-(trifluoromethoxy)pyridin-2-yl)amino)pyridin-2-yl)methanone] | 770 nM |  | 86.9 nM | 4120 nM | 
Cc1ccc(Nc2cc(OC(F)(F)F)ccn2)nc1C(=O)N1CC(F)(F)CCC1C(=O)N1CCCC1 (stereo not shown) [Compound 47, (5,5-Difluoro-1-(3-methyl-6-((4-(trifluoromethoxy)pyridin-2-yl)amino)pyridine-2-carbonyl)piperidin-2-yl)(pyrrolidin-1-yl)methanone] | 844 nM |  | 119 nM |  | 938 nM
Cc1ccc(Nc2cc(OC(F)(F)F)ccn2)nc1C(=O)N1CC(F)(F)CC[C@@H]1CN1CCCC1=O [Compound 48, (R)-1-((5,5-difluoro-1-(3-methyl-6-((4-(trifluoromethoxy)pyridin-2-yl)amino)pyridine-2-carbonyl)piperidin-2-yl)methyl)pyrrolidinone-2-one] | 2870 nM |  | 16.4 nM |  | 683 nM
Cc1ccc(Nc2cc(OC(F)(F)F)ccn2)nc1C(=O)N1CC(F)(F)CC[C@@H]1CNC(=O)C1CC1 [Compound 51, (R)—N-((5,5-difluoro-1-(3-methyl-6-((4-(trifluoromethoxy)pyridin-2-yl)amino)pyridine-2-carbonyl)piperidin-2-yl)methyl)cyclopropanecarboxamide] | 1270 nM |  | 7.7 nM |  | 112 nM
CCOc1ccnc(Nc2ccc(C)c(C(=O)N3CC(F)(F)CC[C@@H]3CNC(=O)OC)n2)c1 [Compound 53, (R)-((1-(6-((4-ethoxypyridin-2-yl)amino)-3-methylpyridine-2-carbonyl)-5,5-difluoropiperidin-2-yl)methyl)methyl carbamate] | > 10000 nM |  | 19.7 nM | > 10000 nM | 
CC(=O)NC[C@H]1CCC(F)(F)CN1C(=O)c1cc(Nc2cc(OC(F)(F)F)ccn2)ccc1C [Compound 68, (R)—N-((5,5-difluoro-1-(2-methyl-5-((4-(trifluoromethoxy)pyridin-2-yl)amino)benzoyl)piperidin-2-yl)methyl)acetamide] | > 10000 nM |  | 265 nM | > 10000 nM | 
